Data taken from patent publication US12240862B2, “Inhibitors of peptidylarginine deiminases” (Gilead Sciences, Inc., priority 2020, dated 2025).

Target: T1, human PAD4 (Homo sapiens, UniProt Q9UM07)
T1 construct: human PAD4 (NM_012387), A2P663, was PCR amplified; His-SUMO (N, cleaved yes); made in house; host or cells: E. coli BL21(DE3)
Assay: In vitro PAD4 BAEE biochemical assay
Settings: human PAD4, BAEE substrate; 5 nM PAD4, 2 mM calcium chloride, 3 mM BAEE; geometric mean of multiple experiments
Outline: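 Ammonia release from BAEE deimination monitored by o-phthalaldehyde amine coupling (1 h, 25 °C) after EDTA stop. Final conditions: 5 nM tag-free recombinant human PAD4 (E. coli), 2 mM CaCl2, 3 mM BAEE, pH 7.6 MOPS with DTT; 30 min compound preincubation, then 2 h reaction at 25 °C.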

T1 sequence (Q9UM07 2-663): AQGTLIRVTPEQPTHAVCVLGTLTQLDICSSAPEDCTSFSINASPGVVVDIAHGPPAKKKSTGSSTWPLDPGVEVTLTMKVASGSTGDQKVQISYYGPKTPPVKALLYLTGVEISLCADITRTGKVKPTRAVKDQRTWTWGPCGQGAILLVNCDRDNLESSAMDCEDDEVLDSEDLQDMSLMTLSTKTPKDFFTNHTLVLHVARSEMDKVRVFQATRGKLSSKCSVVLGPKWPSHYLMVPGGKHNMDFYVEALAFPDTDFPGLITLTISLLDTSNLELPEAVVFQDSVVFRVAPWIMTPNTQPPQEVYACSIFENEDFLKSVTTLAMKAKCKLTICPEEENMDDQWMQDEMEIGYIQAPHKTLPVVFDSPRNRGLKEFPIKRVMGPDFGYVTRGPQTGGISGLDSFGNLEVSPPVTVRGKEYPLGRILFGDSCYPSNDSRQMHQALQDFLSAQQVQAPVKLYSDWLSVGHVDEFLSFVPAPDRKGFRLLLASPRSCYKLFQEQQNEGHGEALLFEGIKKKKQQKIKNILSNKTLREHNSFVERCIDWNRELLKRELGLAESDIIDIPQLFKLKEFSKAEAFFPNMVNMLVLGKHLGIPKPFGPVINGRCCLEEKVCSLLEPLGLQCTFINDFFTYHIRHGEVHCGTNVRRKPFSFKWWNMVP

IC50 [nM]	SMILES
76.7	COc1cc(C(=O)N2C[C@H]3CC[C@@H]2[C@@H]3N)cc2nc(-c3cc4ccc([C@@H](C)NC(=O)[C@H]5CC5(F)F)nc4n3CC3CC3)c(C)n12 [Example 100, (R)-N-((R)-1-(2-(7-((1R,4R,7R)-7-amino-2-azabicyclo[2.2.1]heptane-2-carbonyl)-5-methoxy-3-methylimidazo[1,2-a]pyridin-2-yl)-1-(cyclopropylmethyl)-1H-pyrrolo[2,3-b]pyridin-6-yl)ethyl)-2,2-difluorocyclopropane-1-carboxamide]
148	CS(=O)(=O)N(c1ccc2cc(-c3nc4cc(C(=O)N5CCC[C@@H](N)C5)c(F)cn4c3C3CC3)n(CC3CC3)c2n1)C(F)F [Example 392, ~{N}-[2-[7-[(3~{R})-3-aminopiperidine-1-carbonyl]-3-cyclopropyl-6-fluoroimidazo [1,2-a]pyridin-2-yl]-1-(cyclopropylmethyl)pyrrolo [2,3-b]pyridin-6-yl]-~{N}-(difluoromethyl) methanesulfonamide]
151	COc1cc(C(=O)N2CC[C@@H]3CCNC[C@H]32)cc2nc(-c3cc4ccc(N(C(F)F)S(C)(=O)=O)nc4n3CC3CC3)c(C)n12 [Example 418, ~{N}-[2-[7-[(3~{a}~{S}, 7~{a}~{S})-2,3,3~{a},4,5,6,7,7~{a}-octahydropyrrolo[2,3-c]pyridine-1-carbonyl]-5-methoxy-3-methylimidazo[1,2-a]pyridin-2-yl]-1-(cyclopropylmethyl)pyrrolo [2,3-b]pyridin-6-yl]-~{N}-(difluoromethyl) methanesulfonamide]
179	COc1cc(C(=O)N2[C@H]3CC[C@@H]2[C@H](N)C3)cc2nc(-c3cc4ccc([C@@H](C)NC(=O)C(C)(C)C(F)(F)F)nc4n3CC3CC3)c(C)n12 [Example 171, ~{N}-[(1~{R})-1-[2-[7-[(1~{R},2~{R},4~{S})-2-amino-7-azabicyclo[2.2.1]heptane-7-carbonyl]-5-methoxy-3-methylimidazo [1,2-a]pyridin-2-yl]-1-(cyclopropylmethyl)pyrrolo [2,3-b]pyridin-6-yl]ethyl]-3,3,3-trifluoro-2,2-dimethylpropanamide]
274	COc1cc(C(=O)N2CCC[C@@H](N)C2)cc2nc(-c3cc4ccc([C@@H](C)N(C)C(=O)c5ccccc5)nc4n3CC3CC3)c(C)n12 [Example 186, ~{N}-[(1~{R})-1-[2-[7-[(3~{R})-3-aminopiperidine-1-carbonyl]-5-methoxy-3-methylimidazo [1,2-a]pyridin-2-yl]-1-(cyclopropylmethyl)pyrrolo [2,3-b]pyridin-6-yl]ethyl]-~{N}-methylbenzamide]
4880	COc1cc(C(=O)N(C)C2CCCNC2)cc2nc(-c3cc4ccc(N(C(F)F)S(C)(=O)=O)nc4n3CC3CC3)c(C)n12 (stereo not shown) [Example 328, 2-[1-(cyclopropylmethyl)-6-[difluoromethyl (methylsulfonyl)amino]pyrrolo[2,3-b]pyridin-2-yl]-5-methoxy-~{N}, 3-dimethyl-~{N}-piperidin-3-ylimidazo [1,2-a]pyridine-7-carboxamide]
58.6	CNC(=O)CC(C)(C)c1ccc2cc(-c3nc4cc(C(=O)N5[C@H]6CC[C@@H]5[C@H](N)C6)cc(OC)n4c3C)n(CC3CC3)c2n1 [Example 539, 3-[2-[7-[(1~{R},2~{R}, 4~{S})-2-amino-7-azabicyclo[2.2.1]heptane-7-carbonyl]-5-methoxy-3-methylimidazo[1,2-a]pyridin-2-yl]-1-(cyclopropylmethyl)pyrrolo[2,3-b]pyridin-6-yl]-~{N},3-dimethylbutanamide]
7180	COc1cc(C(=O)N2CC[C@@H]3CCNC[C@@H]32)cc2nc(-c3cc4ccc(N(C(F)F)S(C)(=O)=O)nc4n3CC3CC3)c(C)n12 (single isomer, unassigned) [Example 417]
867	COc1cc(C(=O)N2[C@H]3CC[C@@H]2[C@H](N)C3)cc2nc(-c3cc4ccc([C@@H](C)Nc5cccc(Cl)n5)nc4n3CC3CC3)c(C)n12 [Example 262, [(1~{R},2~{R},4~{S})-2-amino-7-azabicyclo [2.2.1]heptan-7-yl]-[2-[6-[(1~{R})-1-[(6-chloropyridin-2-yl)amino]ethyl]-1-(cyclopropylmethyl)pyrrolo[2,3-b]pyridin-2-yl]-5-methoxy-3-methylimidazo[1,2-a]pyridin-7-yl]methanone]
28.6	COc1cc(C(=O)N2[C@H]3CC[C@@H]2[C@H](N)C3)cc2nc(-c3cc4ccc([C@@H](C)NC(=O)c5cnc(C)o5)nc4n3CC3CC3)c(C)n12 [Example 80, ~{N}-[(1~{R})-1-[2-[7-[(1~{R},2~{R},4~{S})-2-amino-7-azabicyclo[2.2.1]heptane-7-carbonyl]-5-methoxy-3-methylimidazo [1,2-a]pyridin-2-yl]-1-(cyclopropylmethyl)pyrrolo [2,3-b]pyridin-6-yl]ethyl]-2-methyl-1,3-oxazole-5-carboxamide]
63.5	CCOC(=O)CCC(=O)N[C@H](C)c1ccc2cc(-c3nc4cc(C(=O)N5[C@H]6CC[C@@H]5[C@H](N)C6)cc(OC)n4c3C)n(CC3CC3)c2n1 [Example 152, ethyl 4-[[(1~{R})-1-[2-[7-[(1~{R},2~{R},4~{S})-2-amino-7-azabicyclo[2.2.1]heptane-7-carbonyl]-5-methoxy-3-methylimidazo [1,2-a]pyridin-2-yl]-1-(cyclopropylmethyl)pyrrolo [2,3-b]pyridin-6-yl]ethyl]amino]-4-oxobutanoate]
112	COc1cc(C(=O)N2[C@H]3CC[C@@H]2[C@H](N)C3)cc2nc(-c3cc4ccc([C@@H](C)NC(=O)c5ccn(C(F)F)n5)nc4n3CC3CC3)c(C)n12 [Example 81, ~{N}-[(1~{R})-1-[2-[7-[(1~{R},2~{R},4~{S})-2-amino-7-azabicyclo[2.2.1]heptane-7-carbonyl]-5-methoxy-3-methylimidazo [1,2-a]pyridin-2-yl]-1-(cyclopropylmethyl)pyrrolo [2,3-b]pyridin-6-yl]ethyl]-1-(difluoromethyl)pyrazole-3-carboxamide]
1170	COc1cc(C(=O)N2CC[C@@H]3CCN[C@@H]3C2)cc2nc(-c3cc4ccc(N(C(F)F)S(C)(=O)=O)nc4n3CC3CC3)c(C)n12 [Example 419]
82.2	COc1cc(C(=O)N2[C@H]3CC[C@@H]2[C@H](N)C3)cc2nc(-c3cc4ccc([C@@H](C)NC(=O)N5CC6CC6C5)nc4n3CC3CC3)c(C)n12 (stereo partly shown) [Example 246, ~{N}-[(1~{R})-1-[2-[7-[(1~{R},2~{R},4~{S})-2-amino-7-azabicyclo[2.2.1]heptane-7-carbonyl]-5-methoxy-3-methylimidazo [1,2-a]pyridin-2-yl]-1-(cyclopropylmethyl)pyrrolo [2,3-b]pyridin-6-yl]ethyl]-3-azabicyclo[3.1.0]hexane-3-carboxamide]
578	COc1cc(C(=O)N2[C@H]3CC[C@@H]2[C@H](N)[C@H](OCC(F)F)C3)cc2nc(-c3cc4ccc([C@@H](C)NC(=O)C56CC(F)(C5)C6)nc4n3CC3CC3)c(C)n12 [Example 18]
38400	COc1cc(C(=O)NC[C@@H]2CCCCN2)cc2nc(-c3cc4ccc(N(C(F)F)S(C)(=O)=O)nc4n3CC3CC3)c(C)n12 [Example 294, 2-[1-(cyclopropylmethyl)-6-[difluoromethyl (methylsulfonyl)amino]pyrrolo[2,3-b]pyridin-2-yl]-5-methoxy-3-methyl-~ {N}-[[(2~{S})-piperidin-2-yl]methyl]imidazo[1,2-a]pyridine-7-carboxamide]
